According to patent US6340702B1 (priority 1996, dated 2002):
Values joined by “and” are separate entries in the source; they are usually repeats but may differ in a detail not shown here. Equal entries are not always repeated. Structures can show the parent of a compound that is named as a salt. Where two headings read alike, the source gives them in different places.

Key:
[1] = test system: mouse-acclimated influenza virus A/PR/8/34 strain; set-up: species or system mice (BALB/C); conditions: in vivo
[2] = test system: mouse-acclimated influenza virus A/PR/8/34 strain; set-up: species or system mice (BALB/C); conditions: in vivo; remark: listed apart in the source
[3] = test system: mouse-acclimated influenza virus A/PR/8/34 strain; set-up: species or system mice (BALB/C); conditions: in vivo; remark: listed apart in the source
[4] = test system: Influenza virus strain A/Yamagata/32189(H1N1); assay: microbe, parasite or virus in culture; type: cell-based
[5] = target: crude influenza virus sialidase (Influenza A virus, UniProt P03468); conditions: Table 5; absorbance at 415 nm reduced by 50%, pH 6.5, 37° C., 20 minutes
Sequence of crude influenza virus sialidase (P03468 whole entry, looked up): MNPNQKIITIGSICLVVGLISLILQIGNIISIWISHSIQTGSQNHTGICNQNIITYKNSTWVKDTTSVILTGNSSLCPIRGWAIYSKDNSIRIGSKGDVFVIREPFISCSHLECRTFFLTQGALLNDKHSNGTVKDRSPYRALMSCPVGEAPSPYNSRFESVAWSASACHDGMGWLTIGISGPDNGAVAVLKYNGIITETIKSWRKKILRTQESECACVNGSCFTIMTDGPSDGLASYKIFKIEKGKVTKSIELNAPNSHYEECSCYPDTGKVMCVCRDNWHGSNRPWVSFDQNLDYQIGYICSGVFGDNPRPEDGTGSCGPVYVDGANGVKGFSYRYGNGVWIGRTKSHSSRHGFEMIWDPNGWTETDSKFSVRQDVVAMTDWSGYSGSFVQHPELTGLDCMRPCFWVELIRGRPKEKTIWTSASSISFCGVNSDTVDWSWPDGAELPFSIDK
Method: In this experiment, a sample of influenza virus strain A/PR/8/34(H1N1) was dissolved by means of a surfactant, after which the virus membrane fraction was purified by centrifugation.
An enzyme solution was first prepared such that the final enzyme activity was 0.001 1 units/ml (1 unit corresponds to that amount of enzyme which hydrolyzes 1 μmole of substrate in 1 minute). Also prepared beforehand were aqueous solutions of test compound in various concentrations; an aqueous solution of the substrate to a concentration of 33 μg/ml, and a 20 mM 2-(N-morpholino)-ethanesulfonic acid buffer (pH 6.5) containing 50 mM calcium chloride. These solutions were combined to prepare a mixture having a final volume of 150 μl, and which was then left to stand at 37° C. for 20 minutes.

SMILES: CCCCCCCCCCCCCCOC(=O)C1=CC(NC(=N)N)C(NC(C)=O)[C@H](C(O)C(O)CO)O1.O=C(O)C(F)(F)F (stereo partly drawn) [Example 1′, Myristyl 5-acetamido-2,3,4,5-tetradeoxy-4-guanidino-D-glycero-D-galacto-non-2-enopyranosoate trifluoroacetic acid salt]
- influenza infection therapeutic effects compared with Compound A [1]: superior to those of Compound A
- number of surviving mice divided by the number of test mice, Day 8 [1]: 4/12
- influenza infection therapeutic effects compared with Compound A [2]: superior to those of Compound A
- number of surviving mice divided by the number of test mice, Day 3 [2]: 5/8
- number of surviving mice divided by the number of test mice, Day 6 [2]: 8/8

SMILES: CCCCCCCC(=O)OCC(O)C(O)[C@@H]1OC(C(=O)O)=CC(NC(=N)N)C1NC(C)=O.O=C(O)C(F)(F)F (stereo partly drawn) [Example 5′, 5-Acetamido-2,3,4,5-tetradeoxy-4-guanidino-9-O-octanoyl-D-glycero-D-galacto-non-2-enopyranosoic acid trifluoroacetic acid salt]
- number of surviving mice divided by the number of test mice, Day 6 [3]: 11/11
- number of surviving mice divided by the number of test mice, Day 8 [3]: 10/11

SMILES: CCCCCCCCCC(=O)OCC(O)C(O)[C@@H]1OC(C(=O)O)=CC(NC(=N)N)C1NC(C)=O.O=C(O)C(F)(F)F (stereo partly drawn) [Example 6′, 5-Acetamido-2,3,4,5-tetradeoxy-4-guanidino-9-O-decanoyl-D-glycero-D-galacto-non-2-enopyranosoic acid trifluoroacetic acid salt]
- number of surviving mice divided by the number of test mice, Day 6 [3]: 11/11
- number of surviving mice divided by the number of test mice, Day 8 [3]: 10/11

SMILES: CCCCCCCCCCCCCCCC(=O)OCC(O)C(O)[C@@H]1OC(C(=O)O)=CC(NC(=N)N)C1NC(C)=O.O=C(O)C(F)(F)F (stereo partly drawn) [Example 7′, 5-Acetamido-2,3,4,5-tetradeoxy-4-guanidino-9-O-palmitoyl-D-glycero-D-galacto-non-2-enopyranosoic acid trifluoroacetic acid salt]
- number of surviving mice divided by the number of test mice, Day 6 [3]: 10/10
- number of surviving mice divided by the number of test mice, Day 8 [3]: 3/10

SMILES: CCCCCC(=O)OCC(O)C(O)[C@@H]1OC(C(=O)O)=CC(NC(=N)N)C1NC(C)=O.O=C(O)C(F)(F)F (stereo partly drawn) [Example 4′, 5-Acetamido-2,3,4,5-tetradeoxy-4-guanidino-9-O-hexanoyl-D-glycero-D-galacto-non-2-enopyranosoic acid trifluoroacetic acid salt]
- number of surviving mice divided by the number of test mice, Day 6 [3]: 10/10
- number of surviving mice divided by the number of test mice, Day 8 [3]: 6/10

SMILES: CCCCCCCCCCCCCCCCCC(=O)OCC(O)C(O)[C@@H]1OC(C(=O)O)=CC(NC(=N)N)C1NC(C)=O.O=C(O)C(F)(F)F (stereo partly drawn) [Example 9′, 5-Acetamido-2,3,4,5-tetradeoxy-4-guanidino-9-O-octadecanoyl-D-glycero-D-galacto-non-2-enopyranosoic acid trifluoroacetic acid salt]
- number of surviving mice divided by the number of test mice, Day 6 [3]: 10/10
- number of surviving mice divided by the number of test mice, Day 8 [3]: 4/10

SMILES: CCCCCCCCCCCCCCCCOC(=O)C1=CC(NC(=N)N)C(NC(C)=O)[C@H](C(O)C(O)CO)O1.O=C(O)C(F)(F)F (stereo partly drawn) [Example 10′, Cetyl 5-acetamido-2,3,4,5-tetradeoxy-4-guanidino-D-glycero-D-galacto-non-2-enopyranosoate trifluoroacetic acid salt]
- influenza infection therapeutic effects compared with Compound A [1]: superior to those of Compound A
- number of surviving mice divided by the number of test mice, Day 8 [1]: 10/12

SMILES: CCCCCCCCCCCC(=O)OCC(O)C(O)[C@@H]1OC(C(=O)O)=CC(NC(=N)N)C1NC(C)=O.O=C(O)C(F)(F)F (stereo partly drawn) [Example 8′, 5-Acetamido-2,3,4,5-tetradeoxy-4-guanidino-9-O-dodecanoyl-D-glycero-D-galacto-non-2-enopyranosoic acid trifluoroacetic acid salt]
- number of surviving mice divided by the number of test mice, Day 6 [3]: 11/11
- number of surviving mice divided by the number of test mice, Day 8 [3]: 2/11

SMILES: CO[C@@H]([C@@H]1OC(C(=O)O)=C[C@H](N=C(N)N)[C@H]1NC(C)=O)[C@H](O)CO [Example 28, 5-Acetamido-4-guanidino-2,3,4,5,7-pentadeoxy-7-methoxy-D-glycero-D-galacto-non-2-enopyranosoic acid trifluoroacetic acid salt]
- IC50 ([4]; read-out: IC50): 1.7 nM

SMILES: CC(=O)NC1C(NC(=N)N)C=C(C(=O)O)O[C@H]1C(O)C(O)CO (stereo partly drawn) [Compound A, reference compound]
- IC50 ([4]; unidentified influenza virus, H1N1, MDCK, 40 h, Table 3, plaque number reduced to 50%, MDCK cells): 4.7 nM
- IC50 ([4]; unidentified influenza virus, H1N1, MDCK, 40 h, Table 4, plaque number reduced to 50%, MDCK cells): 11 nM
- number of surviving mice divided by the number of test mice, Day 10 [1]: dead
- number of surviving mice divided by the number of test mice, Day 8 [3]: one
- number of surviving mice divided by the number of test mice, Day 3 [2]: 3/7
- number of surviving mice divided by the number of test mice, Day 10 [2]: dead

SMILES: CCCCCCOC(=O)C1=CC(NC(=N)N)C(NC(C)=O)[C@H](C(O)C(O)CO)O1.O=C(O)C(F)(F)F (stereo partly drawn) [Example 2′, Hexyl 5-acetamido-2,3,4,5-tetradeoxy-4-guanidino-D-glycero-D-galacto-non-2-enopyranosoate trifluoroacetic acid salt]
- influenza infection therapeutic effects compared with Compound A [2]: superior to those of Compound A
- number of surviving mice divided by the number of test mice, Day 3 [2]: 2/8
- number of surviving mice divided by the number of test mice, Day 6 [2]: 8/8
- number of surviving mice divided by the number of test mice, Day 10 ([2]; trifluoroacetic acid salt): 1 and 1/8

SMILES: CCCCCCCCCCCCCC(=O)OCC(O)C(O)[C@@H]1OC(C(=O)O)=CC(NC(=N)N)C1NC(C)=O.O=C(O)C(F)(F)F (stereo partly drawn) [Example 3′, 5-Acetamido-2,3,4,5-tetradeoxy-4-guanidino-9-O-myristoyl-D-glvcero-D-galacto-non-2-enopyranosoic acid trifluoroacetic acid salt]
- number of surviving mice divided by the number of test mice, Day 6 [3]: 10/10
- number of surviving mice divided by the number of test mice, Day 8 [3]: 10/10

SMILES: CCCCCCCCCCCCCCCCCCOC(=O)C1=CC(NC(=N)N)C(NC(C)=O)[C@H](C(O)C(O)CO)O1.O=C(O)C(F)(F)F (stereo partly drawn) [Example 11′, Stearyl 5-acetamido-2,3,4,5-tetradeoxy-4-guanidino-D-glycero-D-galacto-non-2-enopyranosoate trifluoroacetic acid salt]
- influenza infection therapeutic effects compared with Compound A [1]: superior to those of Compound A
- number of surviving mice divided by the number of test mice, Day 8 [1]: 11/11

SMILES: CCO[C@@H]([C@@H]1OC(C(=O)O)=C[C@H](N=C(N)N)[C@H]1NC(C)=O)[C@H](O)CO [Example 30, 5-Acetamido-4-guanidino-2,3,4,5,7-pentadeoxy-7-ethoxy-D-glycero-D-galacto-non-2-enoic acid trifluoroacetic acid salt]
- IC50 ([4]; read-out: IC50): 0.8 nM
- IC50 [5]: 7 nM
